For one series, the system named is P388. Nature of the series: Cytotoxicity against mouse P388 cells. Type of series: functional, cell-based.
Another series concerns Artemia. The series can be described thus: Toxicity against brine shrimp larvae. Type of series: organism-based. The settings on record: in vivo.

Activity calls are given as the source filed them. No cut-off for these calls is given here.

In ChEMBL document CHEMBL1158313, “Isolation of New Steroidal Hemiacetals from the Gorgonian Euplexaura anastomosans” (J Nat Prod, 1996) one finds Activity data, which are given here for four compounds.

As for `CC(C)[C@H]1CC[C@H]([C@@]2(O)CC[C@H]3[C@@H]4CCC5=CC(=O)C=C[C@]5(C)[C@H]4CC[C@@]32C)[C@H](O)O1` [ANASTOMOSACETAL A], the result with P388 was inactive. The Activity result in the series on Artemia is given as “Non-toxic”.

With `CC(C)[C@H]1CC[C@H]([C@@]2(O)CC[C@H]3[C@@H]4CC[C@H]5CC(=O)C=C[C@]5(C)[C@H]4CC[C@@]32C)[C@H](O)O1` [ANASTOMOSACETAL B], in the series with P388, the result was inactive. Also, in the series with Artemia, the Activity result is listed as “Non-toxic”.

As for `CC(C)[C@H]1CC[C@H]([C@@]2(O)CC[C@H]3[C@@H]4CCC5=CC(=O)CC[C@]5(C)[C@H]4CC[C@@]32C)[C@H](O)O1` [ANASTOMOSACETAL C], in the series with P388, the outcome was inactive. The Activity result in the series on Artemia is recorded as “Non-toxic”.

Take `CC(C)[C@H]1CC[C@H]([C@@]2(O)CC[C@H]3[C@@H]4CC[C@H]5CC(=O)CC[C@]5(C)[C@H]4CC[C@@]32C)[C@H](O)O1` [ANASTOMOSACETAL D]: in the series on P388, the outcome was inactive. In addition, in the series with Artemia, the Activity entry is listed as “Non-toxic”.
